From patent US9192613B1, “Treatment method for primary premature ejaculation” (Sapere IP, LLC, priority 2014, dated 2015)

Experiments:
[1] = tested on: patients with primary premature ejaculation; assay: On-demand treatment of primary premature ejaculation: onset of action; type: in vivo, men; settings: intracavernosal injection, 5-20 mcg, 20 mcg/ml
Description: Side-effects are dose related and include dizziness, headache, nausea, blurred vision and dry mouth.
The doses start at lower doses such as 5 mcg=0.25 ml and progress to higher doses such as 10 mcg=0.5 ml and 20 mcg=1 ml, as needed, to achieve the desired effect.

[2] = tested on: men with premature ejaculation; settings: cited from earlier work
[3] = tested on: patients receiving intracavernous injection; settings: pooled publications; cited from earlier work

CCCCC[C@H](O)/C=C/[C@H]1[C@H](O)CC(=O)[C@@H]1CCCCCCC(=O)O [Alprostadil]
Onset of Action [1]: 5 to 10 min

CN(C)CCCN1c2ccccc2CCc2ccc(Cl)cc21 [Clomipramine]
Effect at delaying ejaculation ([2]; oral administration): significant effect at delaying ejaculation
Time the drug needs to be taken before sexual relations ([2]; oral, on-demand use): 3 to 4 h

COc1ccc(Cc2nccc3cc(OC)c(OC)cc23)cc1OC [Papaverine]
Fibrosis (%) [3]: 5.7%
Liver Enzymes (%) [3]: 1.6%
Pain (%) [3]: 4%
Priapism (%) [3]: 7.1%
